# Data: publication PMC8343194 (Acta Pharmaceutica Sinica. B, 2021)
# Read-outs that look alike come from different tables or passages of the source.
# Legend:
# [1] = tested on: MDA435/LCC6 cells; assay: Sulforhodamine B cytotoxicity assay, parental cells; type: cell-based; details: Homo sapiens
# [2] = tested on: MDA435/LCC6 MDR1 cells; assay: Sulforhodamine B cytotoxicity / MDR reversal assay, ABCB1-transfected cells; type: cell-based, human; details: for IC50: Homo sapiens
# [3] = Pharmacokinetic study of paclitaxel with oral type I POPs; type: in vivo, Sprague–Dawley rats
# [4] = compound at 0.4 μmol/L, MDA435/LCC6 MDR1
# [5] = Sprague-Dawley, rat, plasma, iv, 6 mg/kg
smiles,measurement,setting,value
"COc1cccc2c1C(=O)c1c(O)c3c(c(O)c1C2=O)C[C@@](O)(C(=O)CO)C[C@@H]3O[C@H]1C[C@H](N)[C@H](O)[C@H](C)O1 [Doxorubicin, doxorubicin]",IC50,"[1]; MDA-435/LCC6, read-out: IC50 of doxorubicin",76 ± 8 nM
same,IC50,[2]; read-out: IC50 of doxorubicin,695 ± 40 nM
"C/C=C/C[C@@H](C)C(=O)[C@H]1C(=O)N[C@@H](C(C)C)C(=O)N(C)CC(=O)N(C)[C@@H](CC(C)C)C(=O)N[C@@H](C(C)C)C(=O)N(C)[C@@H](CC(C)C)C(=O)N[C@@H](C)C(=O)N[C@H](C)C(=O)N(C)[C@@H](CC(C)C)C(=O)N(C)[C@@H](CC(C)C)C(=O)N(C)[C@@H](C(C)C)C(=O)N1C [PSC833, valspodar]",Fold change of doxorubicin IC50 (alone/combination),[2]; [4],11
same,Fold change of paclitaxel IC50 (alone/combination),[2]; [4],59
"CC(=O)O[C@H]1C(=O)[C@@]2(C)[C@H]([C@H](OC(=O)c3ccccc3)[C@]3(O)C[C@H](OC(=O)[C@H](O)[C@@H](NC(=O)c4ccccc4)c4ccccc4)C(C)=C1C3(C)C)[C@]1(OC(C)=O)CO[C@@H]1C[C@@H]2O [Paclitaxel, paclitaxel]",IC50,"[1]; MDA-435/LCC6, read-out: IC50 of paclitaxel",1.36 ± 0.14 nM
same,IC50,[2]; read-out: IC50 of paclitaxel,120 ± 9.44 nM
same,behavior and body weight of rats,[3]; 6 consecutive days of paclitaxel alone or with type I POPs mixture,no abnormality in behavior and no significant weight losses
same,brain accumulation of paclitaxel,"[3]; 24 h after last dose, 6 consecutive days",no brain accumulation of paclitaxel
same,half-life,"[3]; Sprague-Dawley, rat, plasma, intravenous",4.2 ± 0.3 h
same,clearance,[3]; [5],91.7 mL/min/kg
same,half-life,[3]; [5],3.2 ± 0.7 h
same,Ctrough of paclitaxel after the last dose,[3]; paclitaxel iv 6 mg/kg/day ± type I POPs po 50 mg/kg/day for 6 consecutive days,15.8 ± 6.6 nM
